From patent US20240108006A1, “PESTICIDALLY ACTIVE HETEROAROMATIC COMPOUNDS” (SYNGENTA CROP PROTECTION AG, priority 2021, published 2024)

Experiments:
Plutella xylostella = assay: Example B8: Plutella xylostella (diamond back moth), artificial diet 24-well, eggs; type: in vivo; details: 192 h, application rate of 200 ppm, 8 days after infestation, read-out: effect in at least one of the two categories (mortality or growth inhibition)
Method: Example B8: Plutella xylostella (Diamond Back Moth)
24-well microtiter plates with artificial diet were treated with aqueous test solutions prepared from 10,000 ppm DMSO stock solutions by pipetting. After drying, Plutella eggs were pipetted through a plastic stencil onto a gel blotting paper and the plate was closed with it. The samples were assessed for mortality and growth inhibition in comparison to untreated samples 8 days after infestation.
The following compounds gave an effect of at least 80% in at least one of the two categories (mortality or growth inhibition) at an application rate of 200 ppm: […]

Chilo suppressalis = assay: Example B1: Chilo suppressalis (striped rice stemborer), artificial diet, L2 larvae; type: in vivo; details: 144 h, application rate of 200 ppm, 6 days after infestation, read-out: control in at least one of the three categories (mortality, anti-feedant effect, or growth inhibition)
Method: Example B1: Chilo suppressalis (Striped Rice Stemborer)
24-well microtiter plates with artificial diet were treated with aqueous test solutions prepared from 10,000 ppm DMSO stock solutions by pipetting. After drying, the plates were infested with L2 larvae (6-8 per well). The samples were assessed for mortality, anti-feeding effect, and growth inhibition in comparison to untreated samples 6 days after infestation. Control of Chilo suppressalis by a test sample is given when at least one of the categories mortality, anti-feedant effect, and growth inhibition is higher than the untreated sample.

`CC(NC(=O)N1CCc2cc(C(F)(F)F)ncc21)c1ncnn1-c1ccc(C#N)cn1` (stereo not shown) [Example P171, N-[1-[2-(5-cyano-2-pyridyl)-1,2,4-triazol-3-yl]ethyl]-5-(trifluoromethyl)-2,3-dihydropyrrolo[2,3-c]pyridine-1-carboxamide] was tested. Which percent effect (mortality or growth inhibition) at 200 ppm (Plutella xylostella) did it give?
Its percent effect (mortality or growth inhibition) at 200 ppm is no less than 80%.

Which percent effect (mortality or growth inhibition) at 200 ppm (Plutella xylostella) does the source give for `C[C@H](NC(=O)Nc1cc(C(F)(F)F)c(Cl)cc1Cl)c1ncnn1-c1ccc(C(=O)N2CCOCC2)cn1` [Example P175, 1-[2,4-dichloro-5-(trifluoromethyl)phenyl]-3-[(1S)-1-[2-[5-(morpholine-4-carbonyl)-2-pyridyl]-1,2,4-triazol-3-yl]ethyl]urea] here?
The percent effect (mortality or growth inhibition) at 200 ppm was no less than 80%.

Which results are given for `C[C@H](NC(=O)Nc1c(Cl)cc(Cl)c(OC(F)(F)C(F)F)c1I)c1nccnc1-c1ccc(C#N)cn1` [Example P275, 1-[(1S)-1-[3-(5-cyano-2-pyridyl)pyrazin-2-yl]ethyl]-3-[4,6-dichloro-2-iodo-3-(1,1,2,2-tetrafluoroethoxy)phenyl]urea]?
percent control (mortality, anti-feedant effect or growth inhibition) at 200 ppm (Chilo suppressalis): ≥ 80%; percent effect (mortality or growth inhibition) at 200 ppm (Plutella xylostella): ≥ 80%

What does the source list for `C[C@H](NC(=O)Nc1ccccc1OC(F)F)c1ncnn1-c1ncccn1` [Example P107, 1-[2-(difluoromethoxy)phenyl]-3-[(1S)-1-(2-pyrimidin-2-yl-1,2,4-triazol-3-yl)ethyl]urea]?
percent control (mortality, anti-feedant effect or growth inhibition) at 200 ppm (Chilo suppressalis): ≥ 80%; percent effect (mortality or growth inhibition) at 200 ppm (Plutella xylostella): ≥ 80%

For `C[C@H](NC(=O)N1CCc2ccc(C(F)(F)F)cc21)c1ncnn1-c1ncccn1` [Example P50, N-[(1S)-1-(2-pyrimidin-2-yl-1,2,4-triazol-3-yl)ethyl]-6-(trifluoromethyl)indoline-1-carboxamide], which percent control (mortality, anti-feedant effect or growth inhibition) at 200 ppm (Chilo suppressalis) is on record?
The percent control (mortality, anti-feedant effect or growth inhibition) at 200 ppm was no less than 80%.

And the percent effect (mortality or growth inhibition) at 200 ppm (Plutella xylostella)?
Its percent effect (mortality or growth inhibition) at 200 ppm is no less than 80%.

For `C[C@H](NC(=O)Nc1cc(OC(F)(F)C(F)F)c(Cl)cc1Cl)c1nccnc1-c1ccc(C#N)cn1` [Example P245, 1-[(1S)-1-[3-(5-cyano-2-pyridyl)pyrazin-2-yl]ethyl]-3-[2,4-dichloro-5-(1,1,2,2-tetrafluoroethoxy)phenyl]urea], which percent control (mortality, anti-feedant effect or growth inhibition) at 200 ppm (Chilo suppressalis) is on record?
Its percent control (mortality, anti-feedant effect or growth inhibition) at 200 ppm is no less than 80%.

And the percent effect (mortality or growth inhibition) at 200 ppm (Plutella xylostella)?
The percent effect (mortality or growth inhibition) at 200 ppm was no less than 80%.

Which percent effect (mortality or growth inhibition) at 200 ppm (Plutella xylostella) does the source give for `COc1cc(Br)c(Cl)cc1NC(=O)N[C@@H](C)c1ncnn1-c1ncccn1` [Example P368, 1-(4-bromo-5-chloro-2-methoxy-phenyl)-3-[(1S)-1-(2-pyrimidin-2-yl-1,2,4-triazol-3-yl)ethyl]urea] here?
The percent effect (mortality or growth inhibition) at 200 ppm was no less than 80%.

Which percent effect (mortality or growth inhibition) at 200 ppm (Plutella xylostella) does the source give for `C[C@H](NC(=O)Nc1cc(OCC#N)c(Cl)cc1Cl)c1ncnn1-c1ncccn1` [Example P161, 1-[2,4-dichloro-5-(cyanomethoxy)phenyl]-3-[(1S)-1-(2-pyrimidin-2-yl-1,2,4-triazol-3-yl)ethyl]urea] here?
Its percent effect (mortality or growth inhibition) at 200 ppm is no less than 80%.

`CC(=O)c1cc(NC(=O)N[C@@H](C)c2ncnn2-c2ncccn2)c(Cl)cc1Cl` [Example P229, 1-(5-acetyl-2,4-dichloro-phenyl)-3-[(1S)-1-(2-pyrimidin-2-yl-1,2,4-triazol-3-yl)ethyl]urea] was tested. Which percent effect (mortality or growth inhibition) at 200 ppm (Plutella xylostella) did it give?
Its percent effect (mortality or growth inhibition) at 200 ppm is no less than 80%.

`C[C@H](NC(=O)Nc1ccc(C(F)(F)F)c(Cl)c1)c1nccnc1-c1ncccn1` [Example P10, 1-[3-chloro-4-(trifluoromethyl)phenyl]-3-[(1S)-1-(3-pyrimidin-2-ylpyrazin-2-yl)ethyl]urea] was tested. Which percent control (mortality, anti-feedant effect or growth inhibition) at 200 ppm (Chilo suppressalis) did it give?
The percent control (mortality, anti-feedant effect or growth inhibition) at 200 ppm was no less than 80%.

What about the percent effect (mortality or growth inhibition) at 200 ppm (Plutella xylostella) of the same molecule?
The percent effect (mortality or growth inhibition) at 200 ppm was no less than 80%.

For `C[C@H](NC(=O)Nc1cc(Cl)c(OC(F)(F)C(F)C(F)(F)F)cc1Cl)c1ncnn1-c1ncccn1` (stereo partly drawn) [Example P211, 1-[2,5-dichloro-4-(1,1,2,3,3,3-hexafluoropropoxy)phenyl]-3-[(1S)-1-(2-pyrimidin-2-yl-1,2,4-triazol-3-yl)ethyl]urea], which percent effect (mortality or growth inhibition) at 200 ppm (Plutella xylostella) is on record?
Its percent effect (mortality or growth inhibition) at 200 ppm is no less than 80%.

`C[C@H](NC(=O)Nc1ncc(C(F)(F)F)cc1Cl)c1ncnn1-c1ncccn1` [Example P25, 1-[3-chloro-5-(trifluoromethyl)-2-pyridyl]-3-[(1S)-1-(2-pyrimidin-2-yl-1,2,4-triazol-3-yl)ethyl]urea] was tested. Which percent control (mortality, anti-feedant effect or growth inhibition) at 200 ppm (Chilo suppressalis) did it give?
The percent control (mortality, anti-feedant effect or growth inhibition) at 200 ppm was no less than 80%.

And the percent effect (mortality or growth inhibition) at 200 ppm (Plutella xylostella)?
Its percent effect (mortality or growth inhibition) at 200 ppm is no less than 80%.

`C[C@H](NC(=O)Nc1cc(Cl)ccc1C(F)(F)F)c1ncnn1-c1ncccn1` [Example P12, 1-[5-chloro-2-(trifluoromethyl)phenyl]-3-[(1S)-1-(2-pyrimidin-2-yl-1,2,4-triazol-3-yl)ethyl]urea] was tested. Which percent effect (mortality or growth inhibition) at 200 ppm (Plutella xylostella) did it give?
Its percent effect (mortality or growth inhibition) at 200 ppm is no less than 80%.

`C[C@H](NC(=O)Nc1nc(C2CC2)cc(C2CC2)n1)c1ncnn1-c1ncccn1` [Example P33, 1-(4,6-dicyclopropylpyrimidin-2-yl)-3-[(1S)-1-(2-pyrimidin-2-yl-1,2,4-triazol-3-yl)ethyl]urea] was tested. Which percent effect (mortality or growth inhibition) at 200 ppm (Plutella xylostella) did it give?
Its percent effect (mortality or growth inhibition) at 200 ppm is no less than 80%.

Which percent control (mortality, anti-feedant effect or growth inhibition) at 200 ppm (Chilo suppressalis) does the source give for `C[C@H](NC(=O)Nc1ccc(C(F)(F)F)c(Cl)c1)c1ncnn1-c1ncccn1` [Example P128, 1-[3-chloro-4-(trifluoromethyl)phenyl]-3-[(1S)-1-(2-pyrimidin-2-yl-1,2,4-triazol-3-yl)ethyl]urea] here?
The percent control (mortality, anti-feedant effect or growth inhibition) at 200 ppm was no less than 80%.

And the percent effect (mortality or growth inhibition) at 200 ppm (Plutella xylostella)?
The percent effect (mortality or growth inhibition) at 200 ppm was no less than 80%.

Which results are given for `C[C@H](NC(=O)Nc1ccc(Cl)cc1Oc1ccc(Cl)cc1)c1ncnn1-c1ncccn1` [Example P51, 1-[4-chloro-2-(4-chlorophenoxy)phenyl]-3-[(1S)-1-(2-pyrimidin-2-yl-1,2,4-triazol-3-yl)ethyl]urea]?
percent control (mortality, anti-feedant effect or growth inhibition) at 200 ppm (Chilo suppressalis): ≥ 80%; percent effect (mortality or growth inhibition) at 200 ppm (Plutella xylostella): ≥ 80%

Which results are given for `COc1cc(NC(=O)N[C@@H](C)c2ncnn2-c2ncccn2)c(F)cc1Br` [Example P220, 1-(4-bromo-2-fluoro-5-methoxy-phenyl)-3-[(1S)-1-(2-pyrimidin-2-yl-1,2,4-triazol-3-yl)ethyl]urea]?
percent control (mortality, anti-feedant effect or growth inhibition) at 200 ppm (Chilo suppressalis): ≥ 80%; percent effect (mortality or growth inhibition) at 200 ppm (Plutella xylostella): ≥ 80%

With `C[C@@H](c1ncnn1-c1ncccn1)N(C)C(=O)N(C)c1cnc(C(F)(F)F)cc1Cl` [Example P270, 1-[4-chloro-6-(trifluoromethyl)-3-pyridyl]-1,3-dimethyl-3-[(1S)-1-(2-pyrimidin-2-yl-1,2,4-triazol-3-yl)ethyl]urea] as the molecule, how does the percent control (mortality, anti-feedant effect or growth inhibition) at 200 ppm (Chilo suppressalis) read?
Its percent control (mortality, anti-feedant effect or growth inhibition) at 200 ppm is no less than 80%.

What about the percent effect (mortality or growth inhibition) at 200 ppm (Plutella xylostella) of the same molecule?
Its percent effect (mortality or growth inhibition) at 200 ppm is no less than 80%.

How did the percent control (mortality, anti-feedant effect or growth inhibition) at 200 ppm (Chilo suppressalis) turn out when `C[C@H](NC(=O)Nc1ccc(C(F)(F)F)c(Cl)c1)c1nccnc1-c1ccc(C#N)cn1` [Example P9, 1-[3-chloro-4-(trifluoromethyl)phenyl]-3-[(1S)-1-[3-(5-cyano-2-pyridyl)pyrazin-2-yl]ethyl]urea] was run?
The percent control (mortality, anti-feedant effect or growth inhibition) at 200 ppm was no less than 80%.

And the percent effect (mortality or growth inhibition) at 200 ppm (Plutella xylostella)?
The percent effect (mortality or growth inhibition) at 200 ppm was no less than 80%.

Which percent effect (mortality or growth inhibition) at 200 ppm (Plutella xylostella) does the source give for `Cc1cc(Cl)c(Br)cc1NC(=O)N[C@@H](C)c1ncnn1-c1ncccn1` [Example P305, 1-(5-bromo-4-chloro-2-methyl-phenyl)-3-[(1S)-1-(2-pyrimidin-2-yl-1,2,4-triazol-3-yl)ethyl]urea] here?
The percent effect (mortality or growth inhibition) at 200 ppm was no less than 80%.

Which percent control (mortality, anti-feedant effect or growth inhibition) at 200 ppm (Chilo suppressalis) does the source give for `Cc1cc(Br)c(Cl)cc1NC(=O)N[C@@H](C)c1ncnn1-c1ncccn1` [Example P299, 1-(4-bromo-5-chloro-2-methyl-phenyl)-3-[(1S)-1-(2-pyrimidin-2-yl-1,2,4-triazol-3-yl)ethyl]urea] here?
The percent control (mortality, anti-feedant effect or growth inhibition) at 200 ppm was no less than 80%.

And the percent effect (mortality or growth inhibition) at 200 ppm (Plutella xylostella)?
The percent effect (mortality or growth inhibition) at 200 ppm was no less than 80%.

Which results are given for `CC(C)OC(=O)c1cc(NC(=O)N[C@@H](C)c2ncnn2-c2ncccn2)c(F)cc1Cl` [Example P217, isopropyl 2-chloro-4-fluoro-5-[[(1S)-1-(2-pyrimidin-2-yl-1,2,4-triazol-3-yl)ethyl]carbamoylamino]benzoate]?
percent control (mortality, anti-feedant effect or growth inhibition) at 200 ppm (Chilo suppressalis): ≥ 80%; percent effect (mortality or growth inhibition) at 200 ppm (Plutella xylostella): ≥ 80%

With `Cc1cc(NC(=O)N[C@@H](C)c2ncnn2-c2ncccn2)c(Cl)cc1Br` [Example P290, 1-(4-bromo-2-chloro-5-methyl-phenyl)-3-[(1S)-1-(2-pyrimidin-2-yl-1,2,4-triazol-3-yl)ethyl]urea] as the molecule, how does the percent effect (mortality or growth inhibition) at 200 ppm (Plutella xylostella) read?
The percent effect (mortality or growth inhibition) at 200 ppm was no less than 80%.

Which percent control (mortality, anti-feedant effect or growth inhibition) at 200 ppm (Chilo suppressalis) does the source give for `C[C@H](NC(=O)Nc1cc(C(F)(F)F)c(Cl)cc1Cl)c1ncnn1-c1ncc(C(=O)N(C)C)s1` [Example P170, 2-[5-[(1S)-1-[[2,4-dichloro-5-(trifluoromethyl)phenyl]carbamoyl-amino]ethyl]-1,2,4-triazol-1-yl]-N, N-dimethyl-thiazole-5-carboxamide] here?
Its percent control (mortality, anti-feedant effect or growth inhibition) at 200 ppm is no less than 80%.

What about the percent effect (mortality or growth inhibition) at 200 ppm (Plutella xylostella) of the same molecule?
Its percent effect (mortality or growth inhibition) at 200 ppm is no less than 80%.

For `CC(NC(=O)Nc1ccc(Cl)c(C(F)(F)F)c1)c1nccnc1-n1nccn1` (stereo not shown) [Example P259, 1-[4-chloro-3-(trifluoromethyl)phenyl]-3-[1-[3-(triazol-2-yl)pyrazin-2-yl]ethyl]urea], which percent effect (mortality or growth inhibition) at 200 ppm (Plutella xylostella) is on record?
The percent effect (mortality or growth inhibition) at 200 ppm was no less than 80%.

Which results are given for `CC(NC(=O)Nc1cc(C(F)(F)F)c(Cl)cc1Br)c1nccnc1-n1nccn1` (stereo not shown) [Example P260, 1-[2-bromo-4-chloro-5-(trifluoromethyl)phenyl]-3-[1-[3-(triazol-2-yl)pyrazin-2-yl]ethyl]urea]?
percent control (mortality, anti-feedant effect or growth inhibition) at 200 ppm (Chilo suppressalis): ≥ 80%; percent effect (mortality or growth inhibition) at 200 ppm (Plutella xylostella): ≥ 80%

For `COc1cc(NC(=O)N[C@@H](C)c2ncnn2-c2ncccn2)c(I)cc1Cl` [Example P288, 1-(4-chloro-2-iodo-5-methoxy-phenyl)-3-[(1S)-1-(2-pyrimidin-2-yl-1,2,4-triazol-3-yl)ethyl]urea], which percent effect (mortality or growth inhibition) at 200 ppm (Plutella xylostella) is on record?
The percent effect (mortality or growth inhibition) at 200 ppm was no less than 80%.

How did the percent effect (mortality or growth inhibition) at 200 ppm (Plutella xylostella) turn out when `COC(=O)c1cc(NC(=O)N[C@@H](C)c2ncnn2-c2ncccn2)c(F)cc1Br` [Example P228, methyl 2-bromo-4-fluoro-5-[[(1S)-1-(2-pyrimidin-2-yl-1,2,4-triazol-3-yl)ethyl]carbamoylamino]benzoate] was run?
The percent effect (mortality or growth inhibition) at 200 ppm was no less than 80%.
